Test results taken from US20100099712A1, “SUBSTITUTED PYRAZOLINE COMPOUNDS WITH ACAT INHIBITION ACTIVITY” (LABORATORIOS DEL DR. ESTEVE, S.A., priority 2007, published 2010).
Where two headings read alike, the source gives them in different places.

What was measured:
[1] = target: T1, ACAT 2 (Acyl CoA-Cholesterol Acyltransferase 2) (Rattus norvegicus, UniProt Q7TQM4); assay: In-vitro determination of inhibition of ACAT 2 (hepatic microsomes, [14C]-Palmitoyl CoA); assay type: biochemical, Wistar rats
T1 construct: Briefly hepatic microsomes were prepared from the Wistar rats; from tissue; host or cells: liver (hepatic microsomes) of Wistar rats
T1 sequence (Q7TQM4 1-524): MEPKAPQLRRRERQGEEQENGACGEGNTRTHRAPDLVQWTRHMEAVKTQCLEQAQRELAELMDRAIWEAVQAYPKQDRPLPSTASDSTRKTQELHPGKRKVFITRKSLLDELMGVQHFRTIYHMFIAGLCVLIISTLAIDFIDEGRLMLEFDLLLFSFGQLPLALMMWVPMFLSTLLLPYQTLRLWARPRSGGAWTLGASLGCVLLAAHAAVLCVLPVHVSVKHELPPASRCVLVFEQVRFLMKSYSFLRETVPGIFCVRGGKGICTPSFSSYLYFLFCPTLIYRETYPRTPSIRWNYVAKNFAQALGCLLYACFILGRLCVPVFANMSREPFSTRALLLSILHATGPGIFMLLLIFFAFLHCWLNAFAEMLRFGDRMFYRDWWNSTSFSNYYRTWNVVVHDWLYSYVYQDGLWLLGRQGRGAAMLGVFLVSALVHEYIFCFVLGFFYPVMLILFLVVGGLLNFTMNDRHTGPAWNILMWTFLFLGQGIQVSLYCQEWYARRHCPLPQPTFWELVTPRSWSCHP
Protocol: II. In-vitro Determination of Inhibition of ACAT 2 (Acyl CoA-Cholesterol Acyltransferase 2)
The in-vitro determination of the inhibition of the enzyme ACAT 2 by the compounds of the invention is carried out in principle as described in the publication of Largis EE, Wang CH, DeVries VG and Schaffer SA (1989), “A Novel inhibitor of ACAT-catalyzed cholesterol esterification and cholesterol absorption”, J. Lipid Res. 30, 681-689, (1989), whereby hepatic microsomes are used. The radio-substrate used is [^14C]-Palmitoyl CoA. The respective parts of the description are hereby incorporated by reference and forms part of the present disclosure.
Briefly hepatic microsomes were prepared from the Wistar rats. Enzyme inhibition experiments were performed in presence of 18 μM [^14C]-Palmitoyl CoA as substrate. The vehicle used was 1% DMSO. Compounds to be tested were present at various concentrations and the incubation buffer used was 0.2 M Phosphate buffer, pH 7.4 at 25° C. After a 15 minutes preincubation period at 37° C. an incubation period of 10 minutes at 37° C. followed. Quantification of [^14C]Cholesterol ester was done by column chromatography.

[2] = target: T2, ACAT 1 (Acyl CoA-Cholesterol Acyltransferase 1) (Homo sapiens, UniProt P35610); assay: In-vitro determination of inhibition of ACAT 1 (microsomal membranes of U937 cells differentiated to macrophages, [14C]-Palmitoyl CoA); assay type: biochemical; settings: for inhibition at 30 µM: 3 × 10^−5 M; for inhibition at 30 µM / inhibition at 3 µM / inhibition at 100 µM / inhibition at 10 µM / inhibition at 1 µM: read-out: ACAT 1 Inhibition (%) at various concentration of example; for inhibition at 3 µM: 3 × 10^−6 M; for inhibition at 100 µM: 10^−4 M; for inhibition at 10 µM: 10^−5 M; for inhibition at 1 µM: 10^−6 M; for IC50: U937 macrophage microsomes
T2 construct: Cells were collected, homogenized and microsomal membranes prepared; endogenous in cells; host or cells: U937 human monocyte cell line differentiated to macrophages with PMA; microsomal membranes
T2 sequence (P35610 1-550): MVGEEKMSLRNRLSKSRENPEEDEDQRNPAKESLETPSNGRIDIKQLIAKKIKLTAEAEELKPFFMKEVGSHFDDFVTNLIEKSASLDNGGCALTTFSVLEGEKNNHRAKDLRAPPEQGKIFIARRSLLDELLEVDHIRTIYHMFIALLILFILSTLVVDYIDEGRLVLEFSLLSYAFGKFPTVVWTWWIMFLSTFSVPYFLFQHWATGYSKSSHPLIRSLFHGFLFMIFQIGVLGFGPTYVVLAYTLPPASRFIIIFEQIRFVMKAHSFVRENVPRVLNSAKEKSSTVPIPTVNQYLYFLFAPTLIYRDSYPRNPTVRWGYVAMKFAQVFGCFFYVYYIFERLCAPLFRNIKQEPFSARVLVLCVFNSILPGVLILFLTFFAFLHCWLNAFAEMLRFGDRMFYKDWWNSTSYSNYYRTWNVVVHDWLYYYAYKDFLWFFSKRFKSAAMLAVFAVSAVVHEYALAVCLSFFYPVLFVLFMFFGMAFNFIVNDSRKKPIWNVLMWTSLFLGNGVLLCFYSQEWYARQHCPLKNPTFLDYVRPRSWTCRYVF
Protocol: I. In-vitro Determination of Inhibition of ACAT 1 (Acyl CoA-Cholesterol Acyltransferase 1)
The in-vitro determination of the inhibition of the enzyme ACAT 1 by the compounds of the invention is carried out in principle as described:
Human histiocytic monocyte cell line, U937 was differentiated to macrophages with Phorbol 12-myristate 13-acetate at a final concentration of 30 ng/mL for 72 hr. Cells were collected, homogenized and microsomal membranes prepared. Enzyme inhibition experiments were performed in the presence of 20 μM [^14]-Palmitoyl CoA as substrate. The vehicle used was 1% DMSO. Compounds to be tested were present at various concentrations and the incubation buffer used was 0.2M KH2PO4, 1 mM EDTA, 0.15% BSA, pH 7.4. After a 15 minutes preincubation period at 37° C. an incubation period of 1 hour at 37° C. followed. Quantification of [^14C]Cholesterol ester was done by column chromatography.

[3] = target: T1, ACAT 2 (Acyl CoA-Cholesterol Acyltransferase 2); settings: reported value; read-out: ACAT 2 reported IC50 of reference compound; cited from earlier work
[4] = 3 × 10^−6 M, first ACAT 2 table, read-out: ACAT 2 Inhibition (%) at various concentration of example
[5] = 3 × 10^−6 M, second ACAT 2 table, column 4, read-out: ACAT 2 Inhibition (%) at various concentration of example
[6] = 3 × 10^−7 M, first ACAT 2 table, read-out: ACAT 2 Inhibition (%) at various concentration of example
[7] = 10^−5 M, first ACAT 2 table, read-out: ACAT 2 Inhibition (%) at various concentration of example
[8] = 10^−5 M, second ACAT 2 table, column 3, read-out: ACAT 2 Inhibition (%) at various concentration of example
[9] = 10^−6 M, first ACAT 2 table, read-out: ACAT 2 Inhibition (%) at various concentration of example
[10] = second ACAT 2 table, value marked * estimated from 2 different experiments

Row | SMILES | inhibition at 3 µM [1, 4] [%] | inhibition at 3 µM [1, 5] [%] | inhibition at 0.3 µM [1, 6] [%] | inhibition at 10 µM [1, 7] [%] | inhibition at 10 µM [1, 8] [%] | inhibition at 1 µM [1, 9] [%] | IC50 ([1]; first ACAT 2 table) [µM] | IC50 [1, 10] [µM] | inhibition at 30 µM [2] [%] | inhibition at 3 µM [2] [%] | inhibition at 100 µM [2] [%] | inhibition at 10 µM [2] [%] | inhibition at 1 µM [2] [%] | IC50 [2] [µM] | also measured
1 | C[C@@H]1[C@@H](c2ccccc2)C(C(=O)NN2CCCCC2)=NN1c1ccc(Cl)cc1Cl (racemic) [Example 1, 1-(2,4-Dichlorophenyl)-5-methyl-4-phenyl-4,5-dihydro-1H-pyrazole-3-carboxylic acid piperidin-1-ylamide] | 70 | 74 | 19 | 94 | 93 | 44 | 1.28 | < 3 | 72 | 38 | 55 | 65 | 14 | 9.66 | inhibition at 30 µM ([1]; 3 × 10^−5 M, second ACAT 2 table, read-out: ACAT 2 Inhibition (%) at various concentration of example): 97%; inhibition at 100 µM ([1]; 10^−4 M, second ACAT 2 table, read-out: ACAT 2 Inhibition (%) at various concentration of example): 101%; inhibition at 0.1 µM ([1]; 10^−7 M, first ACAT 2 table, read-out: ACAT 2 Inhibition (%) at various concentration of example): -3%
2 | C[C@@H]1[C@@H](c2ccccc2)C(C(=O)NN2CCCCC2)=NN1c1ccc(Cl)cc1Cl.Cl (racemic) [Example 2, 1-(2,4-Dichloro-phenyl)-5-methyl-4-phenyl-4,5-dihydro-1H-pyrazole-3-carboxylic acid piperidin-1-ylamide; Hydrochloride] | – | – | – | – | – | – | 1.42 | – | – | – | – | – | – | – | ACAT 2 Inhibition (%) at various concentration of example ([1]; 3 × 10^−5 M, second ACAT 2 table): 96%; ACAT 2 Inhibition (%) at various concentration of example ([1]; 3 × 10^−6 M, first ACAT 2 table): 70%; ACAT 2 Inhibition (%) at various concentration of example ([1]; 3 × 10^−7 M, first ACAT 2 table): 17%; ACAT 2 Inhibition (%) at various concentration of example ([1]; 10^−4 M, second ACAT 2 table): 100%; ACAT 2 Inhibition (%) at various concentration of example ([1]; 10^−5 M, first ACAT 2 table): 90%; ACAT 2 Inhibition (%) at various concentration of example ([1]; 10^−6 M, first ACAT 2 table): 39%; ACAT 2 Inhibition (%) at various concentration of example ([1]; 10^−7 M, first ACAT 2 table): 4%
3 | CC1C(c2ccccc2)C(C(=O)O)=NN1c1ccc(Cl)cc1Cl (stereo not shown) [Example 3, 1-(2,4-Dichloro-phenyl)-5-methyl-4-phenyl-4,5-dihydro-1H-pyrazole-3-carboxylic acid] | 75 | 71 | 29 | 88 | 86 | 56 | 0.82 | 2 | 74 | 50 | 86 | 64 | 17 | 4.84 | inhibition at 30 µM ([1]; 3 × 10^−5 M, first ACAT 2 table, read-out: ACAT 2 Inhibition (%) at various concentration of example): 92%; inhibition at 3 µM ([1]; 3 × 10^−6 M, second ACAT 2 table, repeated head, column 6, read-out: ACAT 2 Inhibition (%) at various concentration of example): 40%; inhibition at 10 µM ([1]; 10^−5 M, second ACAT 2 table, repeated head, column 5, read-out: ACAT 2 Inhibition (%) at various concentration of example): 65%
4 | CC[C@H](C)C(=O)O[C@H]1C[C@@H](C)C=C2C=C[C@H](C)[C@H](CC[C@@H]3C[C@@H](O)CC(=O)O3)[C@H]21 [Lovastatin, reference compound] | – | – | – | – | – | – | 22.7 | 12.5 | – | – | – | – | – | 9.6 | IC50 [3]: 29 µM
